Source: patent US6825230B2, “Spiro and dispiro 1,2,4-trixolane antimalarials” (Medicines for Malaria Venture MMV, priority 2002, dated 2004)
≈ marks a conversion by molar mass, not a printed value. Like-named read-outs stand apart in the source and are kept apart here.

Columns and labels:
[1] = tested on: ANKA strain of P. berghei; assay: Single dose STI in vivo screen in infected mice; design: species or system Plasmodium berghei; settings: for Survival (days) 10 mg/kg SSV po: single 10 mg/kg po in SSV; for Activity (%) 10 mg/kg SSV po: single 10 mg/kg po in standard suspending vehicle (SSV) on day 1 post-infection
[2] = tested on: chloroquine-sensitive NF54 strain of P. falciparum; assay: In vitro antimalarial semiautomated microdilution assay ([3H]-hypoxanthine incorporation), NF54 strain; assay type: cell-based, Plasmodium falciparum; settings: Plasmodium falciparum
In short: (§1)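 Logit regression analysis yields the fifty percent inhibitory concentration. Compounds are tested by semiautomated microdilution on intraerythrocytic parasites drawn from asynchronous stock cultures, measuring [3H]-hypoxanthine incorporation.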

P. berghei ANKA strain [3] = assay: Prophylactic activity, single 100 mg/kg po at various times before infection; assay type: in vivo, Plasmodium berghei; settings: for Prophylactic Activity (%) 72 h: po, 100 mg/kg; for Prophylactic Activity (%) 24 h: single 100 mg/kg po 24 h before infection; for Prophylactic Activity (%) 24 h / Prophylactic Activity (%) 48 h / Prophylactic Activity (%) 0 h: parasitemia reduction on day 3 post-infection; for Prophylactic Activity (%) 48 h: single 100 mg/kg po 48 h before infection; for Prophylactic Activity (%) 0 h: single 100 mg/kg po at 0 h
Procedure: (§2) Moro NMRI male mice (Fu Albino specific pathogen free) weighing 18±2 g were infected intravenously (i.v.) with 2×10^7 P. berghei ANKA strain-infected erythrocytes from donor mice on day 0 of the experiment. From donor mice with circa 30% parasitemia, heparinized blood was taken and diluted in physiological saline to 10^8 parasitized erythrocytes per ml. An aliquot (0.2 ml) of this suspension was injected i.v. into experimental and control groups of mice. […] Throughout the experiments, mice were kept in groups of three or five animals in Makrolon type II cages in an air-conditioned animal room at 22 to 23° C.
Prophylactic activities of the compounds were compared after administering po single dose of 100 mg/kg to different groups of five animals at various times before infection. All groups including an untreated control group, were then infected at the same time. Parasitemia was determined for each animal on day 3 post-infection, and percent of reduction of the level of parasitemia compared to levels for animals given no drug is determined.

P. berghei ANKA strain [4] = assay: Divided 3x3 mg/kg and 3x1 mg/kg po doses in infected mice; assay type: in vivo, Plasmodium berghei; settings: for Cures: 3 mg/kg, 720 h
Procedure: as §2
(§3) They were administered per os (p.o.) in a total volume of 0.01 ml per gram of mouse. The activity of the compound was determined by a variety of methods outlined in subsequent sections. Survival time was also recorded, and survival to day 30 post-infection was considered to be a cure.
The second experiment consists of administration of divided 3×3 mg/kg and 3×1 mg/kg po doses administered on days 1, 2, and 3 post-infection. On day 4 post-infection, blood smears of all animals were prepared and stained with Giemsa. […] Compounds were administered orally in the SSV vehicle.

[5] = tested on: Schistosoma mansoni adult worms (49-day-old); assay: Effect on adult schistosomes (49-day-old) in infected mice; assay type: in vivo; settings: single 400 mg/kg per os; for % reduction of adult worms growth at day 49 after per os application of 400 mg/kg, TWR (%): 49-day-old adults, total worm reduction rate; for Adult worms day 49, per os 400 mg/kg, DEAD WORM (%): percentage of dead worm in the liver
Procedure: Mice were infected with 100 Schistosoma mansoni cercariae on day 49 post-treatment. Each group was treated per os with OZ compounds at single doses of 200, 400, and 600 mg/kg. Untreated mice served as the control. All groups were killed 4 weeks after treatment and the liver and intestine were removed and separated. The liver and intestine were compressed and alive male and female worms could be seen and counted.

[6] = tested on: chloroquine-resistant K1 strain of P. falciparum; assay: In vitro antimalarial semiautomated microdilution assay ([3H]-hypoxanthine incorporation), K1 strain; assay type: cell-based, Plasmodium falciparum; settings: Plasmodium falciparum
In short: as §1

P. berghei ANKA strain [7] = assay: Onset of action and recrudescence experiment, single 100 mg/kg po; assay type: in vivo, Plasmodium berghei; settings: single 100 mg/kg po (SSV) on day +3 post-infection; recrudescence = >5% parasitemia; followed up to 60 days; groups of five
Procedure: The onset of drug action was determined after a single fixed dose of 100 mg/kg (SSV vehicle) po to groups of five animals on day +3 post-infection (day 0).
as §2

[8] = tested on: ANKA strain of Plasmodium berghei; assay: Single dose ED50/ED90/ED99 determination in infected mice; assay type: in vivo; settings: single dose po in SSV on day 1 post-infection, parasitemia day 3, nonlinear fitting
Procedure: In the single dose ED50/ED98/ED99 determinations, Moro SPF or NMRI mice (group of three) infected with the ANKA strain of Plasmodium berghei were treated on day one post-infection. […] The SSV consists of 0.5% w/v CMC, 0.5% v/v benzyl alcohol, 0.4% v/v Tween 80, and 0.9% w/v sodium chloride in water. Antimalarial activity was measured by percent reduction in parasitemia on day three post-infection. The ED50/ED90 values were calculated by nonlinear fitting.
The ED50, ED90, and ED99 values were calculated by non-linear fitting with statistical program and were expressed in mg/kg.

P. berghei ANKA strain [9] = assay: Divided 3x10 mg/kg vs single 1x30 mg/kg po dose in infected mice; assay type: in vivo, Plasmodium berghei
Procedure: as §2, §3
The first experiment conducted consisted of administration of a divided 3×10 mg/kg p.o. dose administered on days 1, 2, and 3 post-infection vs. a single 1×30 mg/kg po dose administered on day 1 post-infection. On day 4 post-infection, blood smears of all animals were prepared and stained with Giemsa. […] Compounds were administered orally in the SSV vehicle.

[10] = single 3 mg/kg po in SSV, percent reduction in parasitemia on day 3
[11] = percent reduction in parasitemia on day 3
[12] = chloroquine-sensitive NF54 strain, 72 h incubation, read-out: IC50 (ng/ml) NF54
[13] = 3 × 1 mg/kg p.o. SSV on days 1, 2, 3 post-infection
[14] = 3 × 3 mg/kg p.o. SSV on days 1, 2, 3 post-infection
[15] = 3 × 3 mg/kg p.o. SSV on days 1, 2, 3 post-infection, percent reduction of parasitemia vs control on day 4
[16] = chloroquine-resistant K1 strain, 72 h incubation, read-out: IC50 (ng/ml) K1

| Compound | Activity (%) 3 mg/kg SSV po [1, 10] | Survival (days) 10 mg/kg SSV po ([1]; untreated 6-7 days) | Activity (%) 10 mg/kg SSV po [1, 11] | IC50 [2, 12] | Prophylactic Activity (%) 72 h (P. berghei ANKA strain [3]) | Prophylactic Activity (%) 24 h (P. berghei ANKA strain [3]) | Prophylactic Activity (%) 48 h (P. berghei ANKA strain [3]) | Prophylactic Activity (%) 0 h (P. berghei ANKA strain [3]) | Survival (P. berghei ANKA strain [4]; [13]) | Survival (P. berghei ANKA strain [4]; [14]) | Activity (%) (P. berghei ANKA strain [4]; [15]) | Activity (%) (P. berghei ANKA strain [4]; po, 1 mg/kg, 96 h) | Cures (P. berghei ANKA strain [4]; po) | % reduction of adult worms growth at day 49 after per os application of 400 mg/kg, TWR (%) [5] | Adult worms day 49, per os 400 mg/kg, DEAD WORM (%) [5] | IC50 [6, 16] | also measured |
| --- | --- | --- | --- | --- | --- | --- | --- | --- | --- | --- | --- | --- | --- | --- | --- | --- | --- |
| CC(C)(N)C(=O)NC[C@H]1CC[C@]2(CC1)OOC1(O2)C2CC3CC(C2)CC1C3 (stereo partly drawn) [OZ281] | 96% | 8.7 days | 99.87% | 0.3 ng/mL (≈ 0.793 nM) | 8% | 99.23% | 45% | 100% | 13 days | 12.4 days | 100% | 92% | 0\5 | 12% | 15% | 0.5 ng/mL (≈ 1.32 nM) |  |
| O=C(C[C@H]1CC[C@]2(CC1)OOC1(O2)C2CC3CC(C2)CC1C3)NO (stereo partly drawn) [OZ175] |  | 12.3 days | 97% |  |  |  |  |  |  |  |  |  |  |  |  |  | Time of Recrudescence (P. berghei ANKA strain [7]): 13.0 days; Survival (days) 10 mg/kg po ([1]; single 10 mg/kg po in 3% ethanol and 7% Tween 80, untreated 6-7 days): 10.0 days; Activity (%) 10 mg/kg po ([1]; single 10 mg/kg po in 3% ethanol and 7% Tween 80 on day 1 post-infection, percent reduction in parasitemia on day 3): 99.1%; Survival (days) 10 mg/kg sc ([1]; single 10 mg/kg sc in 3% ethanol and 7% Tween 80, untreated 6-7 days): 8.7 days; Activity (%) 10 mg/kg sc ([1]; single 10 mg/kg sc in 3% ethanol and 7% Tween 80 on day 1 post-infection, percent reduction in parasitemia on day 3): 92%; IC50 ([2]; NF54, 72 h, read-out: IC50 (ng/ml) NF54, chloroquine-sensitive NF54 strain, 72 h incubation): 2 ng/mL (≈ 5.93 nM); ED50 ([8]; Plasmodium berghei, po): 3.5 mg/kg; ED90 [8]: 6.2 mg/kg; ED99 [8]: 9.9 mg/kg; IC50 ([6]; K1, 72 h, read-out: IC50 (ng/ml) K1, chloroquine-resistant K1 strain, 72 h incubation): 1.4 ng/mL (≈ 4.15 nM) |
| NCC(=O)NC[C@H]1CC[C@]2(CC1)OO[C@]1(O2)C2CC3CC(C2)CC1C3 [OZ271] | 99.52% | 8.7 days | 99.93% | 0.29 ng/mL (≈ 0.827 nM) | 99.89% | 100% | 99.98% | 100% | 8.8 days | 16.2 days | 99.99% | 87% | 0\5 | 0% | 6% | 0.36 ng/mL (≈ 1.03 nM) | Survival (days) 3 mg/kg SSV po ([1]; single 3 mg/kg po in SSV): 8.6 days; Survival (days) 3 × 10 mg/kg p.o. SSV (P. berghei ANKA strain [9]; 10 mg/kg po on days 1, 2, 3 post-infection): 27.8 days; Activity (%) 3 × 10 mg/kg p.o. SSV (P. berghei ANKA strain [9]; 10 mg/kg po on days 1, 2, 3 post-infection, parasitemia reduction on day 4): 100%; Survival (days) 1 × 30 mg/kg p.o. SSV (P. berghei ANKA strain [9]; single 30 mg/kg po on day 1 post-infection): 14 days; Activity (%) 1 × 30 mg/kg p.o. SSV (P. berghei ANKA strain [9]; single 30 mg/kg po on day 1 post-infection, parasitemia reduction on day 4): 99.97%; Cures 1 × 30 mg/kg p.o. SSV (P. berghei ANKA strain [9]; single 30 mg/kg po, cure = survival to day 30 post-infection): 0/5; Duration of prophylactic protection (P. berghei ANKA strain [3]; single 100 mg/kg po): 3 days |
